According to the supplement of paper PMC11061612:

What was measured:
Experiment in all cases: Bliss excess, mean over the matrix (fraction); higher = more synergy
[1] = system: SNU-61 (Colorectal Carcinoma)
Summary of the method: (§1)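 Bliss excess equals the observed combination effect minus the expected value EA + EB − EA·EB, where EA and EB are the effects of each agent alone. Combination Emax is the second-highest inhibition within the matrix. Inhibition was scaled from CellTiter-Glo 2.0 luminescence, with 0 set by vehicle wells and 1 by blank wells, after 72 hours of two-drug dosing of cells plated in 1536-well plates.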

[2] = system: RCC10RGB (Kidney Carcinoma)
Summary of the method: as §1

[3] = system: SK-LMS-1 (Other Solid Carcinomas)
Summary of the method: as §1

[4] = system: ETK-1 (Biliary Tract Carcinoma)
Summary of the method: as §1

[5] = system: SLVL (B-Cell Non-Hodgkin's Lymphoma)
Summary of the method: as §1

[6] = system: SW48 (Colorectal Carcinoma)
Summary of the method: as §1

[7] = system: EFM-192A (Breast Carcinoma)
Summary of the method: as §1

[8] = system: SNG-M (Endometrial Carcinoma)
Summary of the method: as §1

SK-MEL-1 (Melanoma) = system: SK-MEL-1 (Melanoma)
Summary of the method: as §1

[9] = system: MEG-01 (Chronic Myelogenous Leukemia)
Summary of the method: as §1

[10] = system: KG-1 (Acute Myeloid Leukemia)
Summary of the method: as §1

EW-22 (Ewing's Sarcoma) = system: EW-22 (Ewing's Sarcoma)
Summary of the method: as §1

H4 (Low Grade Glioma) = system: H4 (Low Grade Glioma)
Summary of the method: as §1

[11] = system: TYK-nu (Ovarian Carcinoma)
Summary of the method: as §1

MSTO-211H (Mesothelioma) = system: MSTO-211H (Mesothelioma)
Summary of the method: as §1

HuO9 (Osteosarcoma) = system: HuO9 (Osteosarcoma)
Summary of the method: as §1

[12] = system: P31-FUJ (Acute Myeloid Leukemia)
Summary of the method: as §1

D-392MG (Glioblastoma) = system: D-392MG (Glioblastoma)
Summary of the method: as §1

[13] = system: CAL-39 (Other Solid Carcinomas)
Summary of the method: as §1

[14] = system: GDM-1 (Acute Myeloid Leukemia)
Summary of the method: as §1

| Compound | Bliss excess [1] | Bliss excess [2] | Bliss excess [3] | Bliss excess [4] | Bliss excess [5] | Bliss excess [6] | Bliss excess [7] | Bliss excess [8] | Bliss excess (SK-MEL-1 (Melanoma)) | Bliss excess [9] | Bliss excess [10] | Bliss excess (EW-22 (Ewing's Sarcoma)) | Bliss excess (H4 (Low Grade Glioma)) | Bliss excess [11] | Bliss excess (MSTO-211H (Mesothelioma)) | Bliss excess (HuO9 (Osteosarcoma)) | Bliss excess [12] | Bliss excess (D-392MG (Glioblastoma)) | Bliss excess [13] | Bliss excess [14] |
| --- | --- | --- | --- | --- | --- | --- | --- | --- | --- | --- | --- | --- | --- | --- | --- | --- | --- | --- | --- | --- |
| CN(CCO)CC[C@H](CSc1ccccc1)Nc1ccc(S(=O)(=O)NC(=O)c2ccc(N3CCC([C@@H](O)c4ccccc4-c4ccc(Cl)cc4)CC3)cc2)cc1S(=O)(=O)C(F)(F)F [AZD4320] + C[C@@H](Nc1cc(F)cc(F)c1)c1cc(C(=O)N(C)C)cc2c(=O)cc(N3CCOCC3)oc12 [AZD8186] (first compound max 1 µM, 7x7, partner max 3 µM) | 0.016 | -0.0652 | 0.0304 | -0.046 | 0.0476 | -0.0048 | 0.0057 | 0.0018 | -0.0523 | 0.0022 | 0.066 | -0.0261 | 0.0521 | -0.0224 | 0.0841 | 0.0515 | 0.019 | -0.104 | 0.0175 | 0.0375 |
| Cn1cnc2c(F)c(Nc3ccc(Br)cc3Cl)c(C(=O)NOCCO)cc21 [Selumetinib] + C=CCn1c(=O)c2cnc(Nc3ccc(N4CCN(C)CC4)cc3)nc2n1-c1cccc(C(C)(C)O)n1 [AZD1775] (first compound max 10 µM, partner max 1 µM) | -0.0358 | -0.0703 | 0.0059 | -0.0128 | -0.0275 | 0.0116 | -0.0509 | -0.0444 | 0.0121 | 0.0437 | 0.0445 | -0.0632 | -0.0797 | -0.0404 | -0.0323 | -0.0824 | -0.0064 | -0.0367 | 0.0116 | -0.0254 |
| COc1nnc2ccc(N3CCC(c4ccc(OCCN5CCN(C)C(=O)[C@H]5C)cc4)CC3)nn12 [AZD5153] + CCN(CCO)CCCOc1ccc2c(Nc3cc(CC(=O)Nc4cccc(F)c4)[nH]n3)ncnc2c1 [AZD2811] (first compound max 1 µM, 7x7, partner max 1 µM) | -0.0074 | -0.133 | 0.0012 | -0.118 | -0.151 | -0.0821 | -0.0154 | -0.0158 | -0.0295 | -0.047 | 0.0074 | -0.0779 | -0.0269 | -0.0658 | -0.0182 | -0.0983 | -0.0293 | -0.037 | -0.0508 | -0.0378 |
| CC1(C)CCC(CN2CCN(c3ccc(C(=O)NS(=O)(=O)c4ccc(NCC5CCOCC5)c([N+](=O)[O-])c4)c(Oc4cnc5[nH]ccc5c4)c3)CC2)=C(c2ccc(Cl)cc2)C1 [Venetoclax] + COc1cc(Nc2ncc3c(n2)-c2ccc(Cl)cc2C(c2c(F)cccc2OC)=NC3)ccc1C(=O)O [Alisertib] (first compound max 1 µM, 7x7, partner max 10 µM) | -0.0091 | -0.0943 | 0.0215 | -0.0385 | 0.0761 | -0.0083 | -0.0548 | -0.0189 | 0.0439 | 0.0985 | 0.273 | 0.0313 | -0.0124 | -0.0415 | 0.0116 | 0.135 | 0.0678 | -0.042 | -0.0989 | 0.0312 |
| CC(=O)c1c(C)c2cnc(Nc3ccc(N4CCNCC4)cn3)nc2n(C2CCCC2)c1=O [Palbociclib] + CC1(C)CCC(CN2CCN(c3ccc(C(=O)NS(=O)(=O)c4ccc(NCC5CCOCC5)c([N+](=O)[O-])c4)c(Oc4cnc5[nH]ccc5c4)c3)CC2)=C(c2ccc(Cl)cc2)C1 [Venetoclax] (first compound max 10 µM, 7x7, partner max 1 µM) | -0.0361 | -0.0012 | -0.0316 | -0.0207 | -0.0892 | -0.0251 | -0.0115 | -0.0501 | -0.0353 | -0.0096 | 0.0888 | 0.0129 | 0.0013 | -0.0026 | -0.0922 | 0.0056 | -0.073 | -0.07 | -0.0566 | 0.0557 |
| NC1(C(=O)N[C@@H](CCO)c2ccc(Cl)cc2)CCN(c2ncnc3[nH]ccc23)CC1 [Capivasertib] + CCN(CCO)CCCOc1ccc2c(Nc3cc(CC(=O)Nc4cccc(F)c4)[nH]n3)ncnc2c1 [AZD2811] (first compound max 10 µM, 7x7, partner max 1 µM) | -0.0435 | -0.0838 | -0.0055 | -0.012 | -0.0608 | 0.0146 | -0.0053 | -0.012 | 0.0563 | -0.0484 | -0.0204 | -0.0366 | -0.0124 | -0.0351 | -0.0073 | 0.0135 | -0.0663 | -0.0265 | -0.051 | -0.0464 |
